In ChEMBL document CHEMBL1201862, “PubChem BioAssay data set” (2004):
The source made the active and inactive calls.

Assays:
[1] = target: DNA repair and recombination protein RAD54-like (Homo sapiens, UniProt Q92698); experiment: inhibitors of human RAD54 branch migration, confirmation, biochemical, fluorescence, cherry-picked samples, dose series (AID 651657); format: functional
Mu-type opioid receptor [2] = target: T1, Mu-type opioid receptor (Homo sapiens, UniProt P35372); format: functional, cell-based
T1 sequence (P35372 whole entry): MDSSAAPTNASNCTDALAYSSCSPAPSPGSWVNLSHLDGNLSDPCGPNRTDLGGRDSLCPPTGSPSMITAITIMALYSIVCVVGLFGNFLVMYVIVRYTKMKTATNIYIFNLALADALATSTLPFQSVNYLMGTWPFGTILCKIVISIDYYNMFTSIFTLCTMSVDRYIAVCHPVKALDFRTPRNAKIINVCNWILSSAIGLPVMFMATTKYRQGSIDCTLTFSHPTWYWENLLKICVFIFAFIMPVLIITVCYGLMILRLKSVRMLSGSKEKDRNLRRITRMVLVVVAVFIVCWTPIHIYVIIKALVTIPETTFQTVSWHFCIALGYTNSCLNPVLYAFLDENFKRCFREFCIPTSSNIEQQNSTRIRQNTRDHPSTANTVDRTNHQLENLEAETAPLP

[3] = target: 5-hydroxytryptamine receptor 2A (Mus musculus, UniProt P35363); format: functional, cell-based;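 also: CHO-K1 cells with tagged receptor and beta-arrestin; agonist potency measured as compound-induced activation of the receptor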
Chain of 5-hydroxytryptamine receptor 2A (P35363 whole entry, the tested form may be a part): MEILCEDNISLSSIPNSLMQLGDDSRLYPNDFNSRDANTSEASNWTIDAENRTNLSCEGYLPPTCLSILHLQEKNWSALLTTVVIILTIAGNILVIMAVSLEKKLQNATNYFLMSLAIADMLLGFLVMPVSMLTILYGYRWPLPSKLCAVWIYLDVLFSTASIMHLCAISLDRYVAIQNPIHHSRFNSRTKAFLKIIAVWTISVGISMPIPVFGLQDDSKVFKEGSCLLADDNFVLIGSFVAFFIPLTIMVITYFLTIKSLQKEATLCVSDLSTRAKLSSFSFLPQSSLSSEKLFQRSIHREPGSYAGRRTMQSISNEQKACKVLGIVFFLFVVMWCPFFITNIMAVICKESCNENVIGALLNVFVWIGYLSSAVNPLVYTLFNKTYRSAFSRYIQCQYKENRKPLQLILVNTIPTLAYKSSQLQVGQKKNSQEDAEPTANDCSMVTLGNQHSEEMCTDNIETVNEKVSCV

[4] = ARNT/TACC3 interaction disruptors, potency, confirmation, biochemical, AlphaScreen, cherry-picked samples (AID 651703); format: functional, Homo sapiens;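 also: His-tagged ARNT PAS-B domain paired with GST-TACC3 E629A dimer coactivator fragment; potency of inhibitors that break up the complex and lower AlphaScreen signal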
[5] = HeLa cell cytotoxicity, dose response, cytotoxicity control for MgcRacGAP inhibitor project (AID 624300); format: functional
[6] = target: T2, Rac GTPase-activating protein 1 (Homo sapiens, UniProt Q9H0H5); experiment: MgcRacGAP GTPase-activating activity inhibitors, confirmation, biochemical, ADP Hunter fluorescence, primary and confirmatory (AID 624330); format: functional
T2 sequence (Q9H0H5 whole entry): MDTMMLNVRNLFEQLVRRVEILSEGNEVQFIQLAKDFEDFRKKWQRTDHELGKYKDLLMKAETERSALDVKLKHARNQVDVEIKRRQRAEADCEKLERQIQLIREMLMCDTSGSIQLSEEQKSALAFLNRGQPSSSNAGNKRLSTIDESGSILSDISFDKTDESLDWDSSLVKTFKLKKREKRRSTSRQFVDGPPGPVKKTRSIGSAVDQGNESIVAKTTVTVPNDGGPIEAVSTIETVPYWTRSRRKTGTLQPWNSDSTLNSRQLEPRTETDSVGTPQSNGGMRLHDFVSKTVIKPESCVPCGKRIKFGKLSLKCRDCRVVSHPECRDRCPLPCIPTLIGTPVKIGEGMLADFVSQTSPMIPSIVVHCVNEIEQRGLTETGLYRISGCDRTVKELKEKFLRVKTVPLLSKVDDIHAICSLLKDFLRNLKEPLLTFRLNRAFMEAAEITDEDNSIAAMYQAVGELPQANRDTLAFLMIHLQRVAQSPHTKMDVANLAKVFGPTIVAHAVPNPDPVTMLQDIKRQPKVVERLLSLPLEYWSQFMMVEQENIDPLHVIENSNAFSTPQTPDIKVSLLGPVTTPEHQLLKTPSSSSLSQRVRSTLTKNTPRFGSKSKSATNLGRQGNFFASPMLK

[7] = CRF-BP/CRF-R2 complex antagonists, dose response, cell-based, uHTS hits, 384-well (AID 651639); format: functional, Homo sapiens; details: read-out: IC50_Mean
[8] = target: T3, Corticotropin-releasing factor receptor 2/Corticotropin-releasing factor-binding protein (Homo sapiens, UniProt P24387+Q13324); experiment: activators of CRF receptor 2 with binding protein – uHTS hits, confirmation (AID 602473); format: functional; details: read-out: EC50_Mean
T3 sequence (Q13324 whole entry): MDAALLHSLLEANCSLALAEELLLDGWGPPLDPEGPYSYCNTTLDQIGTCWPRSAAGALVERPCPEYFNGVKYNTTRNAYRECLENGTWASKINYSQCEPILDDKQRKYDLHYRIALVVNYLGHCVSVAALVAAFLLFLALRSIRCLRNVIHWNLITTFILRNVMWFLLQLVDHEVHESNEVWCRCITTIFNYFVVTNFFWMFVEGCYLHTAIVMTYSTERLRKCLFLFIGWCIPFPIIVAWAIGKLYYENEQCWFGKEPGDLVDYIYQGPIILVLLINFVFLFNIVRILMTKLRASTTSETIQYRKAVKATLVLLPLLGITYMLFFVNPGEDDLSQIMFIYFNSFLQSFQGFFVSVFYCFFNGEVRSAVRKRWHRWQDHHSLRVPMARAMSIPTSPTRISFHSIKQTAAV
T3 sequence (P24387 whole entry): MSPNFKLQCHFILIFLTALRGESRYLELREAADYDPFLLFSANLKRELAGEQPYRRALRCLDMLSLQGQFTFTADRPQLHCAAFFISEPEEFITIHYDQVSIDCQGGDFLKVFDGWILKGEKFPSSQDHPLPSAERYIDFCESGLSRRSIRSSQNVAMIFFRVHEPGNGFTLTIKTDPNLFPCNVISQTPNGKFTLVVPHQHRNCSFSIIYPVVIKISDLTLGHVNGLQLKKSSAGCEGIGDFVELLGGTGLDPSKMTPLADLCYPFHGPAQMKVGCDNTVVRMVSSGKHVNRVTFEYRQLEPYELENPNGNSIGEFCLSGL

[9] = target: T3, Corticotropin-releasing factor receptor 2/Corticotropin-releasing factor-binding protein; experiment: Dose Response confirmation of uHTS hits for small molecule antagonists of the CRF-binding protein and CRF-R2 receptor complex.; format: functional; details: read-out: IC50_Mean
Beta-lactamase [10] = target: Beta-lactamase (Salmonella choleraesuis (strain SC-B67), UniProt Q5J463)
Chain of Beta-lactamase (Salmonella choleraesuis (strain SC-B67), UniProt Q5J463) (Q5J463 whole entry): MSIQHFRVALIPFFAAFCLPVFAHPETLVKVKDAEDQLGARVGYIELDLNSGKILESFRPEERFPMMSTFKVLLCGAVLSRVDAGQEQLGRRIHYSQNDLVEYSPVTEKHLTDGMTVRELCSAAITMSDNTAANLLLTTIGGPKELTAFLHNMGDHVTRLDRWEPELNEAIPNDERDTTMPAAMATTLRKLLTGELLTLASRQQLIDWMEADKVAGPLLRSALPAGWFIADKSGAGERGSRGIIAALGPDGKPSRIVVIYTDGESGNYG

Beta-lactamase [11] = target: Beta-lactamase (Pseudomonas aeruginosa, UniProt Q79MP6);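 also: biochemical dose-response test of metallo-beta-lactamase enzyme inhibition, read out by epi-absorbance; purified recombinant IMP-1 metallo-beta-lactamase with nitrocefin as substrate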
Chain of Beta-lactamase (Pseudomonas aeruginosa, UniProt Q79MP6) (Q79MP6 whole entry): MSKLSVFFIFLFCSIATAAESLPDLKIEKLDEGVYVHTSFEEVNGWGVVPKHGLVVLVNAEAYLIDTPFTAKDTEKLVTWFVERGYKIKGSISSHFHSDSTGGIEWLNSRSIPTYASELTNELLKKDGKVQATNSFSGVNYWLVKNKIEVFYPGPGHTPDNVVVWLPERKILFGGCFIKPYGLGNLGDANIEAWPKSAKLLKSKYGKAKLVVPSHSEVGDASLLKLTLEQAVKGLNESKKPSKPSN

Cytochrome P450 2C9 = Cytochrome P450 2C9 (Homo sapiens, UniProt P11712)
Chain of Cytochrome P450 2C9 (P11712 whole entry): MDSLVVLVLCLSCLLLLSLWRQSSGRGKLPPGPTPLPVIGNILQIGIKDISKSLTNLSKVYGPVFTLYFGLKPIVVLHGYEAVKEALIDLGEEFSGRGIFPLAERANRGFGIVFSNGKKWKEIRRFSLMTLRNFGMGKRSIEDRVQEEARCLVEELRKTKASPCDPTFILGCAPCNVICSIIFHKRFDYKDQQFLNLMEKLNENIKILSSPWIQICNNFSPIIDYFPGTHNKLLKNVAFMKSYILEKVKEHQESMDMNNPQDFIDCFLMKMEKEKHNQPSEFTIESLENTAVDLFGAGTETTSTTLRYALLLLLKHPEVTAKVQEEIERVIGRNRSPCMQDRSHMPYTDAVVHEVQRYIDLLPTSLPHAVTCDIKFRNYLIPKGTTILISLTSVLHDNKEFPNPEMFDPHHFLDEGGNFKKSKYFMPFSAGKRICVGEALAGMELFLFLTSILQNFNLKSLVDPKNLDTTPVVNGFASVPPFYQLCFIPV

Cytochrome P450 3A4 = Cytochrome P450 3A4 (Homo sapiens, UniProt P08684);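 also: CYP3A4 tested as one member of a cytochrome P450 panel screen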
Protein skinhead-1 = target: T4, Protein skinhead-1 (Caenorhabditis elegans, UniProt P34707); format: functional
T4 sequence (P34707 whole entry): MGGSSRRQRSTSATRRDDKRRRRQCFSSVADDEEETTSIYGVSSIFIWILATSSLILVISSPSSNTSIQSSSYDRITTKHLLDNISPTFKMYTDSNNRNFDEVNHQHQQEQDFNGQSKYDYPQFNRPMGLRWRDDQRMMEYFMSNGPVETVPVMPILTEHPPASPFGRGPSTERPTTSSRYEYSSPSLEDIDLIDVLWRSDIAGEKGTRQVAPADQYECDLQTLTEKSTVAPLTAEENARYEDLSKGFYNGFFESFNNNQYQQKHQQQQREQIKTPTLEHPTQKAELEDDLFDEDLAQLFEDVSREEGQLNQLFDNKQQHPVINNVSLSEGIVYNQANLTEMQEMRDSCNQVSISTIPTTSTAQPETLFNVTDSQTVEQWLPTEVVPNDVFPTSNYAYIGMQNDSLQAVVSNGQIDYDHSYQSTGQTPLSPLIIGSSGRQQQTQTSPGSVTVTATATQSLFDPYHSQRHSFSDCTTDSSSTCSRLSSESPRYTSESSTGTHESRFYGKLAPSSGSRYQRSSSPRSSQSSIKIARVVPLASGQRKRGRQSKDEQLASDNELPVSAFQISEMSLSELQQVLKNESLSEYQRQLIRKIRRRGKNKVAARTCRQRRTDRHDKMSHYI

Cytochrome P450 2D6 = Cytochrome P450 2D6 (Homo sapiens, UniProt P10635);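 also: CYP2D6 member of a cytochrome P450 panel assay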
Chain of Cytochrome P450 2D6 (P10635 whole entry): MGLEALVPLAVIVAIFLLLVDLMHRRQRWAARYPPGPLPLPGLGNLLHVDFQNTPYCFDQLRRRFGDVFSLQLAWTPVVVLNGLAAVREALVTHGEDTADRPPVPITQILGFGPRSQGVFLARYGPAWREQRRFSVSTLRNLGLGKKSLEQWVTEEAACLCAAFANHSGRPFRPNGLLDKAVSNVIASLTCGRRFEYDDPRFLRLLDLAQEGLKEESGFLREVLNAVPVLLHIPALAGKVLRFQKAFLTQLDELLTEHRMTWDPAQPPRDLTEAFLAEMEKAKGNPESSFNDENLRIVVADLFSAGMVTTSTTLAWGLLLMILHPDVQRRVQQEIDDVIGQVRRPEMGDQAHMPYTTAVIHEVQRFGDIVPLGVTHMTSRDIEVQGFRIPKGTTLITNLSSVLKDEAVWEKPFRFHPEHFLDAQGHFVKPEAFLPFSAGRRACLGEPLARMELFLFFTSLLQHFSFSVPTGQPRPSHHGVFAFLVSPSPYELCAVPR

[12] = inhibitors of SNCA 5'UTR-driven reporter translation, confirmation, H4 neuroglioma cells, luminescence (AID 1988); format: functional, cell-based
[13] = inhibitors of firefly luciferase expression or activity, dose response, H4 neuroglioma cells, luminescence (AID 1990); format: functional, cell-based
Cytochrome P450 2C19 = Cytochrome P450 2C19 (Homo sapiens, UniProt P33261); experiment: Cytochrome panel assay with activity outcomes. Panel member name: p450-cyp2c19 Compounds with AC50 equal or less than 10 uM are considered active; format: functional; details: read-out: AC50
Chain of Cytochrome P450 2C19 (P33261 whole entry): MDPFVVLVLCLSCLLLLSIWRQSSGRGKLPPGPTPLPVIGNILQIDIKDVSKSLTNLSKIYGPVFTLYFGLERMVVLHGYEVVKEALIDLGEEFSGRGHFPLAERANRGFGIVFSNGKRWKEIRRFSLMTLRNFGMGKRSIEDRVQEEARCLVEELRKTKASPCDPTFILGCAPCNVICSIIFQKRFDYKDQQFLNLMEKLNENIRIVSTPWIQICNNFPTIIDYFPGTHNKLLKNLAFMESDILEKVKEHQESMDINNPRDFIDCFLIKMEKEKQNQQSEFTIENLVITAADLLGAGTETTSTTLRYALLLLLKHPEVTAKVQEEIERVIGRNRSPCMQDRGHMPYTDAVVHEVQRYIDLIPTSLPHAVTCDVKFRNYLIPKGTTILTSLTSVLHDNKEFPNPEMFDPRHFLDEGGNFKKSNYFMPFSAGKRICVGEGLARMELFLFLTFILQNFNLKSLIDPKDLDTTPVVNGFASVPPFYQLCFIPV

[14] = Luminescence Cell-Based Dose Response HTS to Identify Inhibitors of 5'UTR Stem-Loop Driven Prion Protein mRNA Translation in H4 Neuroglioblastoma Cells. [Related pubchem assays: 1827 (Project Summary), 1813 (Primary HTS)]; format: functional
HeLa = experiment: HeLa cell cytotoxicity, dose response, cytotoxicity control for MITF activator project, CellTiter-Glo luminescence, cherry-pick samples (AID 540259); format: functional, cell-based; details: Homo sapiens
Melanocortin receptor 4 = Melanocortin receptor 4 (Homo sapiens, UniProt P32245); experiment: MC4R antagonist potency on cAMP, dose response, cell-based, TR-FRET, biased antagonists (AID 602298); format: functional;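 also: antagonist potency against agonist-stimulated cAMP production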
Chain of Melanocortin receptor 4 (P32245 whole entry): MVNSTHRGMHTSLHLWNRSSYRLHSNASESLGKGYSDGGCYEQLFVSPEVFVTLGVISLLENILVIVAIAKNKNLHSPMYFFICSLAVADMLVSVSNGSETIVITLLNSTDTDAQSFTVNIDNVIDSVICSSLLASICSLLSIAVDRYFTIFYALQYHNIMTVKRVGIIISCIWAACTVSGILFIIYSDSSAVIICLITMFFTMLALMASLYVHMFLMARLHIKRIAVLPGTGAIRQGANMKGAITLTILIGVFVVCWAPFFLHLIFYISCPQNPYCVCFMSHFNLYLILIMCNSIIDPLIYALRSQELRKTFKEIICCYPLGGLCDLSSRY

[15] = nonselective inhibitors of cellular cAMP signaling, dose response, counter-screen for MC4R biased antagonist project, cell-based, TR-FRET cAMP detection (AID 602305); format: functional;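 also: U2OS cells stimulated with forskolin near its EC80 as the cAMP inducer; potency is for inhibition of forskolin-stimulated cAMP signaling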
[16] = target: Hepatocyte nuclear factor 4-alpha (Homo sapiens, UniProt P41235); format: functional, cell-based;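 also: biochemical luminescence-based dose-response counterscreen measuring inhibition of HNF4 dimerization, run alongside a screen for blockers of ABHD5–perilipin-5 interaction; split luciferase complementation of HNF4 fusion proteins in cell lysate measuring dimerization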
Chain of Hepatocyte nuclear factor 4-alpha (P41235 whole entry, the tested form may be a part): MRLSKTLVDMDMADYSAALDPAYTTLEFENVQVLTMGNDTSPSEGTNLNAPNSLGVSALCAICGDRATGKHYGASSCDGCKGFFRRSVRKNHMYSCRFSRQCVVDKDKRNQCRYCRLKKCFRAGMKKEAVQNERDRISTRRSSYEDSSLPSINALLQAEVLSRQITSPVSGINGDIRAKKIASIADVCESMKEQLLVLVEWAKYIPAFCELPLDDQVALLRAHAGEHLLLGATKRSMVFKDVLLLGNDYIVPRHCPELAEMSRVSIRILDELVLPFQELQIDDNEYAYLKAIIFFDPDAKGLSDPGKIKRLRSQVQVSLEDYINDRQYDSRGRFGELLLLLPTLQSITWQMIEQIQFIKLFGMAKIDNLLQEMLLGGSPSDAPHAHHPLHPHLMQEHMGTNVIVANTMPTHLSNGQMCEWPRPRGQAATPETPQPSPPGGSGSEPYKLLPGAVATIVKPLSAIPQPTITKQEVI

Mu-type opioid receptor [17] = target: T1, Mu-type opioid receptor; experiment: Counterscreen for agonists of heterodimerization of the mu 1 (OPRM1) and delta 1 (OPRD1) opioid receptors: Luminescence-based cell-based high throughput dose response assay to identify agonists of OPRM1 homodimerization.; format: functional
[18] = target: 5-hydroxytryptamine receptor 5A (Homo sapiens, UniProt P47898); experiment: Counterscreen for agonists of OPRM1-OPRD1 heterodimerization: luminescence-based cell-based high throughput dose response assay to identify agonists of 5-hydroxytryptamine (serotonin) 5A receptor (HTR5A). [Related pubchem assays (depositor defined):AID504326, AID504355, AID504692, AID504904, AID504905]; format: functional
[19] = target: Delta-type opioid receptor (Homo sapiens, UniProt P41143); experiment: Counterscreen for agonists of heterodimerization of the mu 1 (OPRM1) and delta 1 (OPRD1) opioid receptors: Luminescence-based cell-based high throughput dose response assay to identify agonists of OPRD1 homodimerization. [Related pubchem assays (depositor defined):AID504326, AID504355, AID504692, AID504904, AID504905]; format: functional
Chain of Delta-type opioid receptor (P41143 whole entry): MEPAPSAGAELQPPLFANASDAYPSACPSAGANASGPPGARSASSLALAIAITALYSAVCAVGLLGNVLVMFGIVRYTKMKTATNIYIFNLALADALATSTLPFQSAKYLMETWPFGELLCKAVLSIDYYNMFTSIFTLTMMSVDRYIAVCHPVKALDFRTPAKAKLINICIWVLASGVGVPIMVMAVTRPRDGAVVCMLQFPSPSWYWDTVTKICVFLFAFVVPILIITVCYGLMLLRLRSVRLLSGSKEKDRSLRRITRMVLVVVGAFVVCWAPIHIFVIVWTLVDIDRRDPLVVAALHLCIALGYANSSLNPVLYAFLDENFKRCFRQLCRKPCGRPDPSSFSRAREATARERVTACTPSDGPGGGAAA

[20] = target: T5, DNA repair protein RAD52 homolog (Homo sapiens, UniProt P43351); format: functional, biochemical
T5 sequence (P43351 whole entry): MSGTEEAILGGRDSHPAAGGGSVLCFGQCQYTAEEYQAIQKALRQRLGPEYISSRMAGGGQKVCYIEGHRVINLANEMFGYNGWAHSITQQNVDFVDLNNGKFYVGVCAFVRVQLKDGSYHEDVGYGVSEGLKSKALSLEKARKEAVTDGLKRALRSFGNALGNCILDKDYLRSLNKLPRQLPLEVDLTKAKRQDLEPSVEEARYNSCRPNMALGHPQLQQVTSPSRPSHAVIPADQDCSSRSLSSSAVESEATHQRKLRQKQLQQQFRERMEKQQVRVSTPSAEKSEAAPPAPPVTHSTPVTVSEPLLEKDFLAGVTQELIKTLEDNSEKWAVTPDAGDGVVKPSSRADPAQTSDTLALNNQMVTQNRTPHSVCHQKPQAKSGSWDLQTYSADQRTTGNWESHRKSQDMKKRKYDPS

[21] = HEK293 cell viability, dose response, counter-screen for EBV LMP1 inhibitor project, dry powder, set 2 (AID 624374); format: functional

Chain of DNA repair and recombination protein RAD54-like (Q92698 whole entry): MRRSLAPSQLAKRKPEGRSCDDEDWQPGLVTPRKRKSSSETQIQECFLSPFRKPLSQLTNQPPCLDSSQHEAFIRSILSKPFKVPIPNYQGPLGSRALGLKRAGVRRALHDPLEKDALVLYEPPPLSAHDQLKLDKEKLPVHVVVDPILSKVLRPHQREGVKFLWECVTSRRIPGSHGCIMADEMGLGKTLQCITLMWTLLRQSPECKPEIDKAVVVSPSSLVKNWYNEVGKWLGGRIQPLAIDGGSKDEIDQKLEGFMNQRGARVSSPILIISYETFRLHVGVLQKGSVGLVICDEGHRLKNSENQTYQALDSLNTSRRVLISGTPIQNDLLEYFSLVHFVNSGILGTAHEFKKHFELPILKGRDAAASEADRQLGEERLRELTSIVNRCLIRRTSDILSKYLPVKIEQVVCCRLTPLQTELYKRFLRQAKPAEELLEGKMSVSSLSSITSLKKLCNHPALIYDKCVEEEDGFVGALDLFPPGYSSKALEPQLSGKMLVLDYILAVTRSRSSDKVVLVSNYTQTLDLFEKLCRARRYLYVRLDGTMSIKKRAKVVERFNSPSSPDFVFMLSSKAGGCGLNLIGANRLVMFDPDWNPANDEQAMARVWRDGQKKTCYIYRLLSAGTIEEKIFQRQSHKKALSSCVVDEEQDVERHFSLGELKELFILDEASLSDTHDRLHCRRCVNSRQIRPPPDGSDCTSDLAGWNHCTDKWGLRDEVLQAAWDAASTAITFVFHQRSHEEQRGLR

## O=C(Nc1cccc(Br)c1)c1cc(S(=O)(=O)N2CCOCC2)cs1
[1]
  AC50: 72.5 µM (active)

## COc1ccc(S(=O)(=O)NCC(c2ccc3c(c2)OCO3)N2CCN(c3ccccc3)CC2)cc1 (centres undefined)
Mu-type opioid receptor [2]
  EC50: 92.5 µM (inactive)
[3]
  EC50: 17.2 µM (inactive)

## CCCCNC(=O)CCC(=O)N1CCN(C(c2ccccc2)c2ccccc2)CC1
[4]
  AC50: 81 µM (active)

## COc1ccc(C(CNC(=O)c2cc3ccccc3cc2O)N2CCOCC2)cc1 (centres undefined)
[5]
  CC50: 100 µM (active)
[6]
  IC50: 77 µM (active)

## CCOC(=O)C(NC(=O)CC(C)C)(Nc1sc(C)c(CC)c1C#N)C(F)(F)F (centres undefined)
[7]
  IC50: > 20 µM (inactive)
[8]
  EC50: > 53 µM (inactive)
[9]
  IC50: 13.6 µM (active)

## COc1ccc2c(Cl)c(C(=O)NCCCn3ccnc3)sc2c1Cl
Beta-lactamase [10]
  IC50: > 59.6 µM (inactive)
Beta-lactamase [11]
  IC50: > 59.6 µM (inactive)

## CCOC(=O)NCc1ccc2c(c1)cc(C)n2C
Cytochrome P450 2C9
  AC50: inconclusive
Cytochrome P450 3A4
  AC50: 14.1 µM (inconclusive)
Protein skinhead-1
  IC50: > 100 µM (inactive)
Cytochrome P450 2D6
  AC50: inconclusive

## Cc1nn2c(nc1=O)NNC2(C)C(C)(C)C (centres undefined)
[4]
  AC50: 130 µM (active)

## O=C1NC(=O)N(CCC2=CCCCC2)C(=O)/C1=C\Nc1cccc(F)c1
[12]
  EC50: 41.4 µM (active)
[13]
  EC50: > 120 µM (not active)
Cytochrome P450 2C19
  AC50: 10 µM (inconclusive)
[14]
  EC50: > 120 µM (not active)
Cytochrome P450 2D6
  AC50: inconclusive

## Cc1nc(NC(C)C)c2cnn(CCc3ccccc3)c2n1
HeLa
  AC50: 84.6 µM (active)

## CC(NC(=O)COC(=O)CNS(=O)(=O)/C=C/c1ccccc1)c1ccccc1 (centres undefined)
Melanocortin receptor 4
  IC50: > 64.6 µM (inactive)
[15]
  IC50: > 64.6 µM (inactive)

## CC(=O)Oc1ccc(C23c4ccccc4C2(OC(C)=O)c2cc(OC(C)=O)ccc23)cc1 (centres undefined)
[16]
  IC50: 5.5 µM (active)

## Cc1ccc(S(=O)(=O)NC(=Nc2ccc([N+](=O)[O-])cc2[N+](=O)[O-])c2ccccc2)cc1
[7]
  IC50: > 20 µM (inactive)
[8]
  EC50: > 53 µM (inactive)
[9]
  IC50: 9.98 µM (active)

## CC(C)[C@H](NC(=O)c1ccc(C(C)(C)C)cc1)C(=O)N1CCN(Cc2ccc3c(c2)OCO3)CC1
Mu-type opioid receptor [2]
  EC50: 92.5 µM (inactive)
[3]
  EC50: 4.33 µM (active)

## CN(CC(=O)Nc1ccccc1Br)C(=O)c1cc2c(s1)CCCCC2
HeLa
  AC50: > 350 µM (inactive)

## Cc1ccc2c(Cl)c(Cc3ccccc3)c(=S)[nH]c2n1
Mu-type opioid receptor [17]
  EC50: > 92.5 µM (inactive)
[18]
  EC50: > 92.5 µM (inactive)
[19]
  EC50: > 92.5 µM (inactive)

## CCCc1nc(C)c2c(=O)[nH]c(-c3cc(S(=O)(=O)N4CCN(CC)CC4)ccc3OCC)nn12
[16]
  IC50: 25.1 µM (inactive)

## COc1ccc(-c2cc3nc(NCCCN(C)C)n(C)c(=O)c3s2)cc1OC
[1]
  AC50: 11.5 µM (active)
[20]
  AC50: 4.79 µM (active)

## C[C@H](NC(=O)C[C@H]1C=C[C@H](NC(=O)Cc2ccccn2)[C@H](CO)O1)c1ccccc1
[21]
  AbsAC35: 200 µM

## C[C@H](CO)N1C[C@H](C)[C@H](CN(C)Cc2ccc(Oc3ccccc3)cc2)Oc2ccc(NC(=O)CCCN(C)C)cc2C1=O
[21]
  AbsAC35: 286.99 µM
